“Also recorded” adds a separate entry of the source. Like-named read-outs stand apart in the source and are kept apart here.
What was measured:
[1] = target: T1, recombinant SHIP2 phosphatase domain (Homo sapiens, UniProt O15357); experiment: SHIP2 activity measurement, malachite green phosphate assay; assay type: biochemical; conditions: for Emax: read-out: max. inhibition of SHIP2 activity; for IC50: 100 μM PI(3,4,5)P3, four-parameter curve-fit
T1 construct: 100 ng of purified His-tagged recombinant SHIP2 phosphatase domain; His tag
T1 sequence (O15357 419-732 limits assumed): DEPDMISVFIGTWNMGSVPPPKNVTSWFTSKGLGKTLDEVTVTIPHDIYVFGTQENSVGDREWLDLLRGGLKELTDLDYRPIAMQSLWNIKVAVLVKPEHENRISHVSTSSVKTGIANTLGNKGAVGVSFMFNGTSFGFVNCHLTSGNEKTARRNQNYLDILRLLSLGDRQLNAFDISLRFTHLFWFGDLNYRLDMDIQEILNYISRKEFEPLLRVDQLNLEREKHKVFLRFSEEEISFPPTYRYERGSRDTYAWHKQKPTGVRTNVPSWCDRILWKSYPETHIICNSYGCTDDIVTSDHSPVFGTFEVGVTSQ
Method: For the activity measurements and other biological assays, sulfonanilides 1–12 were dissolved in DMSO and then further diluted into indicated concentrations in assay buffers or media. The capacities of 1–12 to inhibit SHIP2 activity and the IC50 values of 1–12 were measured using the recombinant SHIP2 phosphatase domain and malachite green phosphate assay at the High Throughput Biomedicine Unit (University of Helsinki, Finland). Different concentrations of 1–12 were dispensed to 384-well plates after which 100 ng of purified His-tagged recombinant SHIP2 phosphatase domain in reaction buffer (10 mM HEPES, pH 7.25, 6 mM MgCl2, 0.1% CHAPS, 250 mM sucrose and 0.25 mM EDTA) was added, and the plates were incubated for 15 min at room temperature. The reaction was started by adding 7.5 μL of PI(3,4,5)P3 (Echelon Biosciences, Salt Lake City, UT, USA) diluted in the reaction buffer (the final concentration of PI(3,4,5)P3 per well was 100 μM in the total volume of 15 μL), plates were incubated for 20 min at room temperature, and 15 μL of BIOMOL green reagent (Biomol, Plymouth Meeting, PA, USA) was added to wells. After 25 min incubation at room temperature, the absorbance was measured at 620 nm using a Pherastar FS plate reader (BMG Labtech, Offenburg, Germany) (n = 3 for each condition).
Data are presented as means ± STD or SEM of three or four independent experiments. Statistical analyses were performed using an unpaired, two-tailed Student’s t-test. P-values ≤0.05 were considered statistically significant. IC50-values were calculated using GraphPad Software, Inc., Prism version 6.05 (San Diego, CA, USA) using four-parameter curve-fit.

L6-GLUT4 myotubes [2] = experiment: Radioactive 2-deoxyglucose glucose uptake assay; assay type: cell-based, Rat; conditions: 50 μM, 20 h; for increase of glucose uptake with insulin stimulation: 100 nM insulin 15 min, compared to control cells stimulated with insulin; for increase of glucose uptake without insulin: serum starvation, no insulin, vs control
Method: (§1) Rat L6 myoblasts (American Type Culture Collection, Manassas, Virginia, USA) and L6 myoblasts stably overexpressing HA-tagged GLUT4 transporter (L6-GLUT4) were grown in high glucose DMEM (Sigma-Aldrich) supplemented with 10% FBS (Sigma-Aldrich, St. Louis, MO, USA), glutamine (Lonza; Walkersville, MD, USA), and penicillin–streptomycin (Sigma-Aldrich) at +37 °C in a humidified 5% CO2 atmosphere. For differentiation, the FBS concentration in the medium was lowered to 2%.
Glucose uptake was measured by a radioactive 2-deoxyglucose assay. L6 myotubes overexpressing GLUT4 glucose transporter were differentiated for 8–9 days. Cells were serum-starved for 20 h supplemented with 50 μM of sulfonanilides 10 or 11, 50 μM of metformin. Thereafter, cells were stimulated or not with 100 nM insulin for 15 min at 37 °C in DMEM (without D-glucose, L-glutamine, phenol red, and sodium pyruvate) (Gibco/Thermo Fisher Scientific). The cells were exposed to 1 μCi/mL 2-deoxy-D-[1, 2-^3H(N)]-glucose (PerkinElmer, Waltham MA, USA) for 5 min at 37 °C. Cells were lysed in 1% Triton X-100 in PBS, and the radioactivity of lysates was measured with a Wallac 1450 Microbeta Trilux liquid scintillator and a luminescense counter (PerkinElmer). Four independent experiments were performed, with 4 technical replicates for each condition.

L6-GLUT4 myotubes [3] = system: L6-GLUT4 myotubes; parameters: method as in PMID 30321069, PMID 1505458; conditions: cited from earlier work
L6 myotubes = experiment: alamarBlue cell viability (cytotoxicity) assay; assay type: cell-based, Rat; conditions: for effect on metabolic activity of the cells (alamarBlue): 50 μM; for effect on cell viability: up to 200 μM
Method: as §1
For cytotoxicity analyses, L6 myoblasts were seeded on 96-well plates, differentiated for 7 days into myotubes, and incubated O/N with 0-300 μM sulfonanilides after which 10 μL of alamarBlue cell viability reagent (ThermoFisher Scientific, Waltham, MA, USA) was added according to the manufacturer instructions. The fluorescence was measured at 544/590 nm ± 20 nm using a Hidex Sense microplate reader (Hidex, Turku, Finland) at 0 and 60 min time points after the addition of the alamarBlue reagent, and the viability of the cells was calculated. The assay was repeated three times (n = 4 for each condition).

[4] = system: Akt phosphorylation in L6 myotubes; experiment: Akt activation (phosphorylation at Ser473) assay, quantitative Western blotting; assay type: cell-based, Rat; conditions: 15 min pretreatment then 10 nM insulin for 15 min
Method: as §1
To measure the Akt activation (phosphorylation), L6 myoblasts were differentiated into myotubes for 7 days, serum starved O/N, and treated with 0–50 μM sulfonanilides for 15 min after which 10 nM insulin (Actrapid, Novo Nordisk, Bagsvaerd, Denmark) was added for an additional 15 min. The cells were lysed in NP-40 buffer (1% nonidet P-40, 20 mM Tris–HCl pH 7.4, 150 mM NaCl) supplemented with phosphatase inhibitors (50 mM NaF and 1 mM Na3VO4) and protease inhibitor cocktail (cOmpleteProtease Inhibitor Coctail tablets, Roche Diagnostics GmbH, Mannheim, Germany) and then immunoblotted as in Tolvanen et al.[32] Briefly, samples were separated in 8% polyacrylamide gels and transferred onto PVDF membrane (Immobilon-FL PVDF transfer membrane, Merck Millipore Ltd., Tullagreen, Ireland). […]

L6-GLUT4 myotubes [5] = experiment: On-Cell Western for HA-GLUT4 on the plasma membrane; assay type: cell-based, Rat; conditions: for increase of GLUT4 on the plasma membrane with insulin stimulation, compared to control cells treated with insulin / increase of GLUT4 on the plasma membrane with insulin stimulation, compared to control cells without insulin / increase of GLUT4 on the plasma membrane without insulin stimulation: 50 μM, 20 h; for increase of GLUT4 on the plasma membrane without insulin stimulation: no insulin, vs control without insulin
Method: as §1
Differentiated L6-GLUT4 myotubes cultured on 96-well plate were treated with sulfonanilides 10 or 11 at 50 μM concentration for 20 h, of which the last 4 h in a serum-free medium. The quiescent cells were stimulated or not with 100 nM insulin for 15 min at 37 °C and fixed with 2% paraformaldehyde on ice for 5 min followed by 20 min at room temperature. The cells were incubated with a primary antibody against HA.11 epitope tag (#901513, BioLegend, San Diego, CA, USA) diluted 1/100 in 50% Odyssey Blocking buffer (LI-COR) in PBS at room temperature for 1 h, followed by incubation with a secondary antibody (IRDye 800CW Donkey anti-Mouse, LI-COR) and the nuclear marker DRAQ-5 (Thermo Fisher Scientific, Rockford, IL, USA) at room temperature for 1 h. The fluorescent signals were detected and quantified with an Odyssey infrared imager (LI-COR). DRAQ-5 was used for normalization. Four independent experiments were performed, resulting in total in 30–34 replicates for each condition.

[6] = purified His-tagged SHIP2 phosphatase domain, 100 μM PI(3,4,5)P3, n = 3
[7] = purified His-tagged SHIP2 phosphatase domain

## CN(c1ccc(F)cc1F)S(=O)(=O)c1cccs1 [Compound 12, 2′,4′-Difluoro-N-methyl-2-thiophenesulfonanilide]
[1]; [6]
  max. inhibition of SHIP2 activity: almost inactive
  Emax: 5 ± 1.7%

## Cc1ccc(S(=O)(=O)Nc2ccc(F)cc2Br)cc1 [Compound 7, 2′-Bromo-4′-fluoro-p-toluenesulfonanilide]
[1]; [7]
  IC50: > 50 µM
[1]; [6]
  Emax: 17 ± 2.1%

## O=S(=O)(Nc1ccc(F)cc1Br)c1ccc(F)c(F)c1F [Compound 8, 2′-Bromo-4′-fluoro-2,3,4-trifluorobenzenesulfonanilide]
[1]; [6]
  Emax: 10 ± 5.1%

## CN(C)C(=N)N=C(N)N [Metformin, metformin, reference compound]
L6-GLUT4 myotubes [2]
  increase of glucose uptake with insulin stimulation: did not enhance glucose uptake; also recorded: did not increase glucose uptake
  increase of glucose uptake without insulin: did not enhance glucose uptake
L6-GLUT4 myotubes [3]
  concentration necessary to increase glucose uptake into myotubes: 2 mM

## CN(c1ccccc1)S(=O)(=O)c1ccoc1 [Compound 5, N-Methyl-3-furansulfonanilide]
[1]; [6]
  Emax: 3 ± 1.5%

## O=S(=O)(Nc1ccc(F)cc1Br)c1cccs1 [Compound 10, 2′-Bromo-4′-fluoro-2-thiophenesulfonanilide]
L6 myotubes
  effect on metabolic activity of the cells (alamarBlue): slightly enhance the metabolic activity
L6 myotubes; O/N incubation
  effect on cell viability: no or very little effect on cell viability; also recorded: not cytotoxic
[4]
  Akt activation at 50 μM: Neither sulfonanilide 10 nor 11 activated Akt; also recorded: did not enhance Akt activation
L6-GLUT4 myotubes [5]; 100 nM insulin 15 min
  increase of GLUT4 on the plasma membrane with insulin stimulation, compared to control cells treated with insulin: 10%
  increase of GLUT4 on the plasma membrane with insulin stimulation, compared to control cells without insulin: 26%
L6-GLUT4 myotubes [5]
  increase of GLUT4 on the plasma membrane without insulin stimulation: 4%
[1]; [7]
  IC50: 41.2 µM
[1]; [6]
  Emax: 45 ± 17%
L6-GLUT4 myotubes [2]
  increase of glucose uptake with insulin stimulation: 30%
  increase of glucose uptake without insulin: 18–19%

## CN(c1ccccc1)S(=O)(=O)c1cccs1 [Compound 6, N-Methyl-2-thiophenesulfonanilide]
[1]; [7]
  IC50: > 50 µM
[1]; [6]
  Emax: 11 ± 2.2%

## CN(c1ccccc1)S(=O)(=O)c1ccc2ccccc2c1 [Compound 3, N-Methyl-2-naphthalenesulfonanilide]
[1]; [7]
  IC50: > 50 µM
[1]; [6]
  Emax: 15 ± 1.6%

## CN(c1ccccc1)S(=O)(=O)c1ccccc1 [Compound 1, N-Methylbenzenesulfonanilide]
[1]
  Emax: 6 ± 2.8%

## Cc1ccc(S(=O)(=O)N(C)c2ccccc2)cc1 [Compound 2, N-Methyl-p-toluenesulfonanilide]
[1]
  Emax: 10 ± 7.2%

## CN(c1ccccc1)S(=O)(=O)c1ccc(F)c(F)c1F [Compound 4, N-Methyl-2,3,4-trifluorobenzenesulfonanilide]
[1]; [7]
  IC50: > 50 µM
[1]; [6]
  Emax: 12 ± 4%

## insulin: insulin (Actrapid, Novo Nordisk) used to stimulate myotubes
L6-GLUT4 myotubes [5]; control myotubes without sulfonanilide, 100 nM insulin 15 min, vs no insulin
  increase of GLUT4 on the plasma membrane by insulin stimulation alone: 16%

## O=S(=O)(Nc1ccc(F)cc1Br)c1ccoc1 [Compound 9, 2′-Bromo-4′-fluoro-3-furansulfonanilide]
[1]; [6]
  Emax: 9 ± 3%

## CN(c1ccc(F)cc1F)S(=O)(=O)c1ccc(F)c(F)c1F [Compound 11, 2′,4′-Difluoro-N-methyl-2,3,4-trifluorobenzenesulfonanilide]
L6 myotubes
  effect on metabolic activity of the cells (alamarBlue): slightly enhance the metabolic activity
L6 myotubes; 300 μM, O/N incubation
  decrease of cell viability: 24%
L6 myotubes; O/N incubation
  effect on cell viability: no or very little effect on cell viability
[4]
  Akt activation at 50 μM: Neither sulfonanilide 10 nor 11 activated Akt; also recorded: did not enhance Akt activation
L6-GLUT4 myotubes [5]; 100 nM insulin 15 min
  increase of GLUT4 on the plasma membrane with insulin stimulation, compared to control cells treated with insulin: no increase
  increase of GLUT4 on the plasma membrane with insulin stimulation, compared to control cells without insulin: 15%
L6-GLUT4 myotubes [5]
  increase of GLUT4 on the plasma membrane without insulin stimulation: 8%
[1]; [7]
  IC50: 7.07 µM
[1]; [6]
  Emax: 45 ± 0.7%
L6-GLUT4 myotubes [2]
  increase of glucose uptake with insulin stimulation: 23%
  increase of glucose uptake without insulin: 18–19%

Source: paper PMC6990439, “Novel Sulfonanilide Inhibitors of SHIP2 Enhance Glucose Uptake into Cultured Myotubes” (ACS Omega, 2020)
